We go through one molecule from patent US10513534B2, “2′-chloro nucleoside analogs for HCV infection” (priority 2012, dated 2019).

One data set has as its system HCV genotype 1b replicon. The data set is described as follows: HCV replicon assay (Zluc luciferase). The class given is cell-based. To be noted: Zluc cells, 72 hours; read-out: HCV Replicon EC50. The procedure, abridged:
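Zluc Huh-7 cells with HCV genotype 1b replicon and luciferase reporter treated with 5-fold dilutions (100 μM to 0.0000512 μM final) in duplicate, or at 1 and 10 μM. Luminescence read with ONE-glo; EC50 from dose-response fits, or % inhibition at the fixed concentrations.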

The nature of data set [1]: Stability in liver microsomes. The class given is in vitro ADME. The conditions noted are these: human liver microsomes 1.0 mg/mL, 10 μM, NADPH, 60 min. How it is done: (§1) Stability of test compounds were determined in human liver and intestinal microsomes in duplicate for each matrix. Pooled liver and intestinal microsomal proteins (1.0 mg/mL), suspended in incubation buffer (100 mM potassium phosphate, pH 7.4, 5 mM MgCl2, and 0.1 mM EDTA), were preincubated for 5 min at 37° C. with 10 μM of a test compound from a 10 mM stock solution in DMSO (final DMSO concentration was 0.1%); the reaction was initiated by the addition of NADPH (3 mM final concentration). At specific times (0 and 60 min), 0.1 mL samples were taken and the reaction terminated by the addition of 4 volumes of stop solution (acetonitrile with 500 ng/mL carbutamide as an internal standard). The samples were vortexed for 30 sec and then centrifuged at 16000×g for 10 min. 100 μL of supernatants were transferred to 96 deep-well plates preloaded with 100 μL distilled water and analyzed after mixing by LC-MS/MS. The MS peak area ratio of the test compound versus the internal standard was calculated and percent unchanged test compound over 60 minutes was calculated using this ratio.

Data set [2] in a line: Stability in intestinal microsomes. To be noted: human intestinal microsomes 1.0 mg/mL, 10 μM, NADPH, 60 min. The class given is in vitro ADME. How it is done: as §1
The nature of data set [3]: Plasma nucleoside pharmacokinetics after single oral dose in CD-1 mice.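 As to Ms Plasma nucleoside AUC: pmol·h/mL plasma normalized to a 1 µmol/kg dose.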 The class given is in vivo. To be noted: single oral dose 10 mg/kg in PEG 200. Put shortly:
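Mouse plasma was extracted by acetonitrile/0.2% formic acid protein precipitation using 2′-MeG-D3 or tiapride as internal standard. Nucleoside was quantified by positive-ion LC-MS/MS after C18 gradient separation. Calibration spanned 0.500 (LLOQ) to 200 ng/mL.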

The nature of data set [4]: Liver triphosphate pharmacokinetics after single oral dose in CD-1 mice.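 As to Ms Liver TP AUC: pmol·h/g liver normalized to a 1 µmol/kg dose.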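 As to Ms Liver TP Cmax: pmol/g liver normalized to a 1 µmol/kg dose.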 The conditions noted are these: single oral dose 10 mg/kg in PEG 200. The format is in vivo. How it is done: Internal standard solution was added to the homogenate followed by neutralization with 20% ammonium hydroxide solution and addition of 500 μL 1% formic acid. The tissue samples were extracted by weak anion exchange solid phase extraction (SPE). Post extraction, the eluates were evaporated under nitrogen, followed by reconstitution before injection onto the LC-MS/MS system.

With `CC(C)OC(=O)[C@H](C)NP(=O)(OC[C@H]1O[C@@H](n2ccc(=O)[nH]c2=O)[C@](C)(Cl)[C@@H]1O)Oc1ccccc1` (single isomer, unassigned) [Compound 40ii Diastereomer 2], the EC50 (usually the concentration giving half of the maximal effect) in the data set on HCV genotype 1b replicon was less than 250 nM. Moreover, the “HLM (1 hr) stability (percent remaining)” value in data set [1] is reported as “++ (25% < ++ ≤ 50%)”. The “HIM (1 hr) stability (percent remaining)” value in data set [2] is given as “++++ (75% < ++++)”. In addition, in data set [3], the “Ms Plasma nucleoside AUC” value is “+++ (500 < +++ ≤ 1500)” and the “Ms Plasma nucleoside Cmax” value is given as “+++ (50 < +++ ≤ 100)”. For the same molecule, in data set [4], the “Ms Liver TP AUC” value is on record as “+++ (500 < +++ ≤ 1500)” and the “Ms Liver TP Cmax” value is reported as “++ (15 < ++ ≤ 50)”.
